Assay results reported in ChEMBL document CHEMBL4184333, “Expanding Benzoxazole-Based Inosine 5'-Monophosphate Dehydrogenase (IMPDH) Inhibitor Structure-Activity As Potential Antituberculosis Agents” (J Med Chem, 2018).
≈ marks a conversion by molar mass, not a printed value. Calls of active or inactive are those of the source. The calls are words filed in the database; no cut-off is given here.

Key:
HepG2 [1] = experiment: Cytotoxicity against human HepG2 cells assessed as LDH release at 25 uM after 24 hrs relative to control; format: cell-based; conditions: hepg2, 24 h
[2] = system: Mycobacterium tuberculosis; experiment: Antitubercular activity against Mycobacterium tuberculosis H37Rv ATCC 27294 using GAST/Fe medium after 1 week in presence of guanine by broth microdilution method; format: functional; conditions: H37Rv ATCC 27294, 168 h
[3] = system: Mycobacterium tuberculosis; experiment: Antitubercular activity against Mycobacterium tuberculosis H37Rv ATCC 27294 using 7H9/ADC/Tween medium after 2 weeks in absence of guanine by broth microdilution method; format: functional, organism-based
[4] = (§1) Cytotoxicity against human HepG2 cells after 24 hrs by LDH release assay; format: cell-based; conditions: HepG2 cells, read-out: LD50
MCF7 = experiment: Cytotoxicity against human MCF7 cells assessed as LDH release at 25 uM after 24 hrs relative to control; format: cell-based; conditions: mcf7, 24 h
[5] = Half life in mouse liver microsomes in presence of NADPH; format: ADME, microsome
[6] = Protein binding in mouse serum at 20 mg/kg, po; format: ADME, organism-based; conditions: read-out: PB
[7] = system: Mycobacterium tuberculosis; experiment: Antitubercular activity against Mycobacterium tuberculosis H37Rv ATCC 27294 using GAST/Fe medium after 1 week in absence of guanine by broth microdilution method; format: functional; conditions: H37Rv ATCC 27294, 168 h
[8] = Tmax in mouse at 20 mg/kg, po; format: ADME, organism-based; conditions: in vivo
[9] = Cmax in mouse at 20 mg/kg, po; format: ADME, organism-based; set-up: dose 20 mg/kg, route oral; conditions: in vivo
[10] = system: Mycobacterium tuberculosis; experiment: Antitubercular activity against Mycobacterium tuberculosis H37Rv ATCC 27294 using 7H9/ADC/Tween medium after 1 week in presence of guanine by broth microdilution method; format: functional; conditions: H37Rv ATCC 27294, 168 h
[11] = system: Mycobacterium tuberculosis; experiment: Antitubercular activity against Mycobacterium tuberculosis H37Rv ATCC 27294 using 7H9/ADC/Tween medium after 1 week in absence of guanine and presence of anhydrotetracycline by Alamar blue assay; format: functional; conditions: H37Rv ATCC 27294, 168 h
[12] = target: Inosine-5'-monophosphate dehydrogenase 2 (Homo sapiens, UniProt P12268); experiment: Inhibition of human IMPDH2 using IMP as substrate by spectrophotometric method; conditions: read-out: Ki(app)
GMP reductase 2 = target: T1, GMP reductase 2 (Homo sapiens, UniProt Q9P2T1); experiment: Inhibition of human GMPR2 using GMP as substrate by spectrophotometric method; conditions: read-out: Ki(app)
T1 sequence (Q9P2T1 whole entry): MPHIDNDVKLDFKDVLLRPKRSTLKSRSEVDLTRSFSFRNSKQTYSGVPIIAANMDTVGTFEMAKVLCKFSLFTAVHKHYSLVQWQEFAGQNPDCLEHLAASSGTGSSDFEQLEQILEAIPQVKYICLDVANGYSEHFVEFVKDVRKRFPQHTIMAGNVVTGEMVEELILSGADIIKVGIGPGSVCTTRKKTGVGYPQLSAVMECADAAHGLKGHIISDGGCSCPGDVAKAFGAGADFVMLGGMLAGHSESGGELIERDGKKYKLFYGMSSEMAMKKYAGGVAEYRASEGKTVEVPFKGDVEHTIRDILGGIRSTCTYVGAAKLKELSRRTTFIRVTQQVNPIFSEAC

[13] = Elimination half life in mouse plasma at 20 mg/kg, po; format: ADME, organism-based; conditions: read-out: beta t1/2 (converted)
HeLa = experiment: Cytotoxicity against human HeLa cells assessed as LDH release at 25 uM after 24 hrs relative to control; format: cell-based
[14] = Drug metabolism in mouse plasma after 2 hrs; format: ADME, cell-free
[15] = system: Mycobacterium tuberculosis; experiment: Antitubercular activity against Mycobacterium tuberculosis H37Rv ATCC 27294 using GAST/Fe medium after 2 weeks in absence of guanine by broth microdilution method; format: functional, organism-based
HEK-293T = experiment: Cytotoxicity against human HEK293T cells assessed as LDH release at 25 uM after 24 hrs relative to control; format: cell-based
[16] = system: Mycobacterium tuberculosis; experiment: Antitubercular activity against Mycobacterium tuberculosis H37Rv ATCC 27294 using 7H9/ADC/Tween medium after 1 week in absence of guanine by broth microdilution method; format: functional; conditions: H37Rv ATCC 27294, 168 h
[17] = Half life in mouse liver microsomes in absence of NADPH; format: ADME, microsome
HepG2 [18] = experiment: as §1; format: cell-based; conditions: hepg2, 24 h

## C[C@H](Nc1cccc(F)c1F)C(=O)Nc1ccc2oc(-c3ccc(C#N)cc3)nc2c1
HepG2 [1]
  Activity: 9 to 13%
[2]
  MIC: 6 µM
[3]
  Activity: Active
[4]
  CC50 at 24 h: > 25 µM
MCF7
  Activity: < 10%
[5]
  t1/2: 26 min
[6]
  fraction unbound: < 0.01
[7]
  MIC: 2 µM (≈ 0.837 µg/mL)
[8]
  Tmax: 30 min
[9]
  Cmax: 3 µM
[10]
  MIC: 1.4 µM
[11]
  MIC: 3.1 µM
[12]
  Ki: > 5 µM
GMP reductase 2
  Ki: > 5 µM
[13]
  half-life: 300 min
HeLa
  Activity: < 10%
[14]
  Drug metabolism: Metabolite_Notdetected
[15]
  Activity: Active
HEK-293T
  Activity: < 10%
[16]
  MIC: 1 to 3.1 µM (≈ 0.418 to 1.3 µg/mL)

## C[C@H](Oc1cccc(Cl)c1Cl)C(=O)Nc1ccc2oc(-c3ccc(OCC(=O)O)cc3)nc2c1
[2]
  MIC: 4 µM
[7]
  MIC: 2 µM (≈ 1 µg/mL)
[17]
  t1/2: 23 min
[10]
  MIC: 20 µM
[12]
  Ki: > 5 µM
GMP reductase 2
  Ki: > 5 µM
[16]
  MIC: 9 µM (≈ 4.51 µg/mL)

## CCOC(=O)COc1ccc(-c2nc3cc(NC(=O)[C@H](C)Oc4cccc(Cl)c4Cl)ccc3o2)cc1
[2]
  MIC: 0.5 µM
[3]
  Activity: Active
HepG2 [18]
  Activity: Non-Toxic
[7]
  MIC: 0.4 µM (≈ 0.212 µg/mL)
[17]
  t1/2: 1.3 min
[10]
  MIC: 0.23 µM
[12]
  Ki: > 5 µM
GMP reductase 2
  Ki: > 5 µM
[15]
  Activity: Active
[16]
  MIC: 0.2 to 3.1 µM (≈ 0.106 to 1.64 µg/mL)

## C#CCOC(=O)COc1ccc(-c2nc3cc(NC(=O)[C@H](C)Oc4cccc(Cl)c4Cl)ccc3o2)cc1
[2]
  MIC: 1.4 µM
[3]
  Activity: Active
HepG2 [18]
  Activity: Non-Toxic
[7]
  MIC: 0.4 µM (≈ 0.216 µg/mL)
[10]
  MIC: 0.4 µM
[12]
  Ki: > 5 µM
GMP reductase 2
  Ki: > 5 µM
[15]
  Activity: Active
[16]
  MIC: 0.2 µM (≈ 0.108 µg/mL)
